Data published in patent publication US9458110B2, “Phenylpyrazole derivatives as potent ROCK1 and ROCK2 inhibitors” (BRISTOL-MYERS SQUIBB COMPANY, priority 2013, dated 2016).

Legend:
ROCK1 = ROCK1 (Homo sapiens (Human), UniProt Q13464); assay: ROCK assay (Caliper LABCHIP peptide phosphorylation), ROCK1; format: biochemical; details: 5 μM ATP, 1.5 μM peptide substrate;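 note: Read-out is separation of phosphorylated from unphosphorylated peptide, with kinase activity inhibition computed at every concentration of a dose-response series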
ROCK2 = ROCK2 (Homo sapiens (Human), UniProt O75116); assay: ROCK assay (Caliper LABCHIP peptide phosphorylation), ROCK2; format: biochemical; details: 5 μM ATP, 1.5 μM peptide substrate;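 note: reaction stopped with EDTA, then phosphorylated and unphosphorylated peptide resolved by microfluidic electrophoresis, kinase inhibition computed at each compound concentration in dose-response series, DMSO under 2%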
Sequence of ROCK2 (O75116 whole entry, species assumed): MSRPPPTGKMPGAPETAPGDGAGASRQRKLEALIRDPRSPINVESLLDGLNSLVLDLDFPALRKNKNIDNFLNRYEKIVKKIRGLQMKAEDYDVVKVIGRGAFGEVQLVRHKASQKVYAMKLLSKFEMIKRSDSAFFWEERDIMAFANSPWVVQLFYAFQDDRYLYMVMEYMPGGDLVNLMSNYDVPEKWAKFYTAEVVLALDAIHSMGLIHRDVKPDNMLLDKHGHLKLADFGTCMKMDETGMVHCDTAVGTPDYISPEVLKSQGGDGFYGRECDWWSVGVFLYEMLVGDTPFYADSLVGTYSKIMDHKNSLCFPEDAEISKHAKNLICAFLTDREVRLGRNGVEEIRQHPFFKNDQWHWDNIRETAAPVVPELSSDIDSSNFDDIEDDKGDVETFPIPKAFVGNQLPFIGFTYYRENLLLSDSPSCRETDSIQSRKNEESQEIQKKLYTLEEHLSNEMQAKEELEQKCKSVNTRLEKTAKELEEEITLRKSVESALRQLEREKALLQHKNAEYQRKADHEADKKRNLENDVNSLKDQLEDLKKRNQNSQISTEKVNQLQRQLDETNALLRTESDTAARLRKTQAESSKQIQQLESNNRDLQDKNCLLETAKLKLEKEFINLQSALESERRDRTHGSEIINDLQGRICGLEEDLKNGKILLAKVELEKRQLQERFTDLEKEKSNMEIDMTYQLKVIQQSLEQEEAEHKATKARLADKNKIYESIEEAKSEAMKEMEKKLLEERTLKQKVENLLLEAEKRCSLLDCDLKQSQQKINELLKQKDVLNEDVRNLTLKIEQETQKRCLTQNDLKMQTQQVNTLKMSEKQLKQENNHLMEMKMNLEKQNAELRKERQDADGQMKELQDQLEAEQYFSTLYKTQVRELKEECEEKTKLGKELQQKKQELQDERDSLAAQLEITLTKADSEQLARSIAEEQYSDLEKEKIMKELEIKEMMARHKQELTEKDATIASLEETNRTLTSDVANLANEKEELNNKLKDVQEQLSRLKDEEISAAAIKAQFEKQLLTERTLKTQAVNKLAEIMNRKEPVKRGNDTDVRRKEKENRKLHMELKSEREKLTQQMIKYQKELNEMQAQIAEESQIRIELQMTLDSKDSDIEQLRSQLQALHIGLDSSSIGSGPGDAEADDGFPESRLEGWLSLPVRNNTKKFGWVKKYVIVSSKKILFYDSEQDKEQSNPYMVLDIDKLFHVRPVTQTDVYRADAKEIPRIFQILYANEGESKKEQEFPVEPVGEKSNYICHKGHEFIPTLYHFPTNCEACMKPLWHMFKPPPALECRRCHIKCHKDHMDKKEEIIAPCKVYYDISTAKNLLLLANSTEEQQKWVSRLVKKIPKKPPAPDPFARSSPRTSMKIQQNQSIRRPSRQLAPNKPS

Sequence of ROCK1 (Q13464 whole entry, species assumed): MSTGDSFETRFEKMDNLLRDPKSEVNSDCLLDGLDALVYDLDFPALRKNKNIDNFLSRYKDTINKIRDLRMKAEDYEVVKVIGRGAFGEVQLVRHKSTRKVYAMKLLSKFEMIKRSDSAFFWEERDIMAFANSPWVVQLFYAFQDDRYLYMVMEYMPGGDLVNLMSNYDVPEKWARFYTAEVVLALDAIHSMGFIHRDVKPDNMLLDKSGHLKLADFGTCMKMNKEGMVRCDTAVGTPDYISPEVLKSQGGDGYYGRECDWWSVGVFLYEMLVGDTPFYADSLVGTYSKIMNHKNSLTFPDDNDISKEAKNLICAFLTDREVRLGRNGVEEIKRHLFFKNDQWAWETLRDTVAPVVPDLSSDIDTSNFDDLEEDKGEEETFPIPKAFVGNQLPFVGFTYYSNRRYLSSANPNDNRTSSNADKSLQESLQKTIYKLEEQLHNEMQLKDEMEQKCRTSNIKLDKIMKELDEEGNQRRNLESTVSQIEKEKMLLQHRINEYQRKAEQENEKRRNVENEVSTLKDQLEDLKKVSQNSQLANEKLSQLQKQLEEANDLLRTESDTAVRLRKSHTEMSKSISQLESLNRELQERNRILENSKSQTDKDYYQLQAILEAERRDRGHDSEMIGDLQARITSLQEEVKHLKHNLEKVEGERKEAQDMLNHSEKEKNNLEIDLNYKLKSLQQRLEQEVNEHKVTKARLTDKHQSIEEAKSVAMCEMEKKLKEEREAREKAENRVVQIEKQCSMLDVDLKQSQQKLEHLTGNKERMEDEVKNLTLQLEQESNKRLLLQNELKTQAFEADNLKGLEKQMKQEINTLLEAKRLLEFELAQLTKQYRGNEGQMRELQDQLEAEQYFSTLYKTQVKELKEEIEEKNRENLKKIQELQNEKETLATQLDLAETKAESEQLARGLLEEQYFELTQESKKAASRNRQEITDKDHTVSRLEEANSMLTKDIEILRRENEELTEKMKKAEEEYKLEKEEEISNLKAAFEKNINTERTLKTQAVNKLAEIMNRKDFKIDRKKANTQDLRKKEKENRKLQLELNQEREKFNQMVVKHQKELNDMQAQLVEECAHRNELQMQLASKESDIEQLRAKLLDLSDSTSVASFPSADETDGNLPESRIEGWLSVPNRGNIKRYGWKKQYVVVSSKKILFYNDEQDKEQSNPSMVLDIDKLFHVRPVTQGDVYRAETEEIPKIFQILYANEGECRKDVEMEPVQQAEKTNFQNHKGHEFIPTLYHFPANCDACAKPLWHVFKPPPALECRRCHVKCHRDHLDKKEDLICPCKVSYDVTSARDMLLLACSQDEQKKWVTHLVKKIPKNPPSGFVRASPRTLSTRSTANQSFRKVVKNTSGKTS

Compound	IC50 (ROCK1)	IC50 (ROCK2)
COc1cc(C(=O)NCc2cccc(N(C)C)c2)ccc1-c1cn[nH]c1 [Example 95, N-{[3-(dimethylamino)phenyl]methyl}-3-methoxy-4-(1H-pyrazol-4-yl)benzamide]	371 nM	47.6 nM
COc1ccc(F)c(C(C)NC(=O)c2ccc(-c3cn[nH]c3)cc2OC)c1 (stereo not drawn) [Example 229, N-[1-(2-fluoro-5-methoxyphenyl)ethyl]-2-methoxy-4-(1H-pyrazol-4-yl)benzamide]	182 nM	76.3 nM
COc1ccc(F)c(C(C)NC(=O)c2ccc(-c3c[nH]nc3C)cc2OC)c1 (stereo not drawn) [Example 213, N-[1-(2-fluoro-5-methoxyphenyl)ethyl]-2-methoxy-4-(3-methyl-1H-pyrazol-4-yl)benzamide]	15.6 nM	5.16 nM
COc1cc(C(=O)NC(C)c2cccc3ccccc23)ccc1-c1cn[nH]c1 (stereo in doubt) [Example 172, 3-methoxy-N-[(1R)-1-(naphthalen-1-yl)ethyl]-4-(1H-pyrazol-4-yl)benzamide]	6.68 nM	2.32 nM
CNc1cc(C(=O)N[C@H](C)c2ccc(F)cc2)ccc1-c1cn[nH]c1 [Example 297, (R)-N-(1-(4-Fluorophenyl)ethyl)-3-(methylamino)-4-(1H-pyrazol-4-yl)benzamide]	1760 nM	518 nM
COc1cc(-c2cn[nH]c2)ccc1C(=O)NC(c1ccccc1F)C(C)(C)O (stereo not drawn) [Example 219, N-[1-(2-fluorophenyl)-2-hydroxy-2-methylpropyl]-2-methoxy-4-(1H-pyrazol-4-yl)benzamide]	585 nM	201 nM
COc1ccc(F)c(C(C)NC(=O)c2ccc(-c3c[nH]nc3C)cc2OC)c1 (stereo not drawn) [Example 152, N-[1-(2-fluoro-5-methoxyphenyl)ethyl]-2-methoxy-4-(3-methyl-1H-pyrazol-4-yl)benzamide]	1510 nM	627 nM
O=C(NCc1ccccc1)c1ccc(-c2cn[nH]c2)cc1CCO [Example 211, N-benzyl-2-(2-hydroxyethyl)-4-(1H-pyrazol-4-yl) benzamide]	1880 nM	6510 nM
COc1cc(C(=O)N[C@@H](C)c2ccccc2Cl)ccc1-c1cn[nH]c1 [Example 44, (S)-N-(1-(2-chlorophenyl)ethyl)-3-methoxy-4-(1H-pyrazol-4-yl)benzamide]	96.1 nM	52.5 nM
COc1c(-c2cn[nH]c2)ccc(C(=O)N[C@H](CO)c2c(F)cccc2F)c1F [Example 199, N-[(1S)-1-(2,6-difluorophenyl)-2-hydroxyethyl]-2-fluoro-3-methoxy-4-(1H-pyrazol-4-yl)benzamide]	219 nM	21.6 nM
COc1ccc(F)c(C(C)NC(=O)c2ccc(-c3cn[nH]c3)cc2OC)c1 (stereo not drawn) [Example 228, N-[1-(2-fluoro-5-methoxyphenyl)ethyl]-2-methoxy-4-(1H-pyrazol-4-yl)benzamide]	12.5 nM	3.05 nM
COc1ccc(F)c(C(C)NC(=O)c2ccc(-c3cn[nH]c3)c(C(C)O)c2)c1 (stereo not drawn) [Example 316, N-[1-(2-fluoro-5-methoxyphenyl)ethyl]-3-(1-hydroxyethyl)-4-(1H-pyrazol-4-yl)benzamide]	82.2 nM	10.9 nM
COc1cc(C(=O)NC(C)c2ccccc2)ccc1-c1cn[nH]c1 (stereo not drawn) [Example 20, 3-methoxy-N-(1-phenylethyl)-4-(1H-pyrazol-4-yl)benzamide]	10.5 nM	2.24 nM
COc1cc(C(=O)NCc2cccc(C(=O)Nc3nc4c(s3)CNCC4)c2)ccc1-c1cn[nH]c1 [Example 246, 3-methoxy-4-(1H-pyrazol-4-yl)-N-{[3-({4H,5H,6H, 7H-[1,3]thiazolo[5,4-c]pyridin-2-yl}carbamoyl)phenyl]methyl} benzamide]	0.26 nM	0.23 nM
COc1cc(C(=O)NCc2c(F)cccc2F)ccc1-c1cn[nH]c1 [Example 98, N-[(2,6-difluorophenyl)methyl]-3-methoxy-4-(1H-pyrazol-4-yl)benzamide]	17.8 nM	2.95 nM
COc1cccc(CNC(=O)c2ccc(-c3c[nH]nc3C)c(OC)c2)c1 [Example 56, 3-Methoxy-N-(3-methoxybenzyl)-4-(3-methyl-1H-pyrazol-4-yl)benzamide]	461 nM	204 nM
Cc1cc(C(=O)N[C@H](C)c2ccc(F)cc2)ccc1-c1cn[nH]c1 [Example 150, N-[(1R)-1-(4-fluorophenyl)ethyl]-3-methyl-4-(1H-pyrazol-4-yl)benzamide]	13.1 nM	18.9 nM
CCN1CCC[C@H]1CNC(=O)c1cccc(CNC(=O)c2ccc(-c3cn[nH]c3)c(OC)c2)c1 [Example 241, N-{[3-({[(2S)-1-ethylpyrrolidin-2-yl]methyl}carbamoyl)phenyl]methyl}-3-methoxy-4-(1H-pyrazol-4-yl)benzamide]	1.54 nM	0.85 nM
CC(O)c1cc(C(=O)NC(C)c2ccccc2F)ccc1-c1cn[nH]c1 (stereo not drawn) [Example 279, N-[1-(2-fluorophenyl)ethyl]-3-(1-hydroxyethyl)-4-(1H-pyrazol-4-yl)benzamide]	52.9 nM	15.7 nM
CC(NC(=O)c1ccc(-c2cn[nH]c2)c(C(F)F)c1)c1ccccc1F (single isomer, unassigned) [Example 301, 3-(Difluoromethyl)-N-(1-(2-fluorophenyl)ethyl)-4-(1H-pyrazol-4-yl)benzamide]	582 nM	361 nM
CC(O)c1cc(C(=O)N[C@H](C)c2ccccc2F)ccc1-c1cn[nH]c1 (stereo partly drawn) [Example 282, N-[(1R)-1-(2-fluorophenyl)ethyl]-3-(1-hydroxyethyl)-4-(1H-pyrazol-4-yl)benzamide]	242 nM	336 nM
CC(O)c1cc(C(=O)N[C@H](C)c2ccccc2)ccc1-c1cn[nH]c1 (stereo partly drawn) [Example 280, 3-(1-hydroxyethyl)-N-[(1R)-1-phenylethyl]-4-(1H-pyrazol-4-yl)benzamide]	> 2000 nM	443 nM
COc1cccc([C@@H](C)NC(=O)c2ccc(-c3cn[nH]c3)cc2OCCN(C)C)c1 [Example 308, 2-[2-(Dimethylamino)ethoxy]-N-[(1R)-1-(3-methoxyphenyl)ethyl]-4-(1H-pyrazol-4-yl)benzamide]	284 nM	37.5 nM
COc1cc(C(=O)NC(C)c2cccc(O)n2)ccc1-c1cn[nH]c1 (stereo not drawn) [Example 159, N-[1-(6-hydroxypyridin-2-yl)ethyl]-3-methoxy-4-(1H-pyrazol-4-yl)benzamide]	7.39 nM	6.76 nM
O=C(N[C@H](CO)c1c(F)cccc1F)c1ccc(-c2cn[nH]c2)c(Cl)c1 [Example 200, 3-chloro-N-[(1S)-1-(2,6-difluorophenyl)-2-hydroxyethyl]-4-(1H-pyrazol-4-yl)benzamide]	42.3 nM	12.3 nM
COC[C@@H](NC(=O)c1ccc(-c2cn[nH]c2)c(C(C)O)c1)c1ccccc1 (stereo partly drawn) [Example 274, 3-(1-hydroxyethyl)-N-[(1S)-2-methoxy-1-phenylethyl]-4-(1H-pyrazol-4-yl)benzamide]	287 nM	263 nM
COc1cc(C(=O)N[C@H](CNC2CC2)c2c(F)cccc2F)ccc1-c1cn[nH]c1 [Example 266, N-[(1S)-2-(Cyclopropylamino)-1-(2,6-difluorophenyl)ethyl]-3-methoxy-4-(1H-pyrazol-4-yl)benzamide]	4.62 nM	4.53 nM
